The results in this text go back to ChEMBL document CHEMBL6109155, “Discovery of Phenylacylpiperidine as Novel sEH Inhibitors through Scaffold Hopping of Natural Stilbene” (J Med Chem, 2025).

The structures appear in SMILES notation.

One data set addresses hERG (Homo sapiens, UniProt Q12809). The data set can be described thus: Inhibition of hERG at 10 uM by whole-cell patch-clamp method relative to control. Type of data set: toxicity.
Data set [1] concerns Mus musculus. Put plainly: Anti-inflammatory activity in BALB/c mouse model of carrageenan-induced paw edema assessed as inhibition of paw swelling at 10 mg/kg, po measured after 6 hrs relative to control. Type of data set: functional.
The subject of another data set is Rattus norvegicus. Put plainly: Anti-inflammatory activity in Sprague-Dawley rat model of CFA-induced rheumatoid arthritis assessed as reduction in hyperplasia in synovial tissue at 10 mg/kg, po administered daily measured after 19 days by H and E staining based analysis. It counts as functional, organism-based. The conditions noted are these: time 19.0 day.
Data set [2] concerns Mus musculus. Put plainly: Anti-inflammatory activity in BALB/c mouse model of carrageenan-induced paw edema assessed as inhibition of paw swelling at 20 mg/kg, po measured for 6 hrs relative to control. Type of data set: functional.
Data set [3] has as its system Mus musculus. Put plainly: Analgesic effect in BALB/c mouse model of acetic acid-induced writhing assessed as reduction in number of writhing episodes at 20 mg/kg, po pretreated for 1 hr followed by acetic acid treatment and measured after 5 to 35 mins relative to control. Type of data set: functional. Details: scale not given: the % may be the effect or the level left; call rule not given here. Conditions: time 65-95 min.

Chain of hERG (Q12809 whole entry): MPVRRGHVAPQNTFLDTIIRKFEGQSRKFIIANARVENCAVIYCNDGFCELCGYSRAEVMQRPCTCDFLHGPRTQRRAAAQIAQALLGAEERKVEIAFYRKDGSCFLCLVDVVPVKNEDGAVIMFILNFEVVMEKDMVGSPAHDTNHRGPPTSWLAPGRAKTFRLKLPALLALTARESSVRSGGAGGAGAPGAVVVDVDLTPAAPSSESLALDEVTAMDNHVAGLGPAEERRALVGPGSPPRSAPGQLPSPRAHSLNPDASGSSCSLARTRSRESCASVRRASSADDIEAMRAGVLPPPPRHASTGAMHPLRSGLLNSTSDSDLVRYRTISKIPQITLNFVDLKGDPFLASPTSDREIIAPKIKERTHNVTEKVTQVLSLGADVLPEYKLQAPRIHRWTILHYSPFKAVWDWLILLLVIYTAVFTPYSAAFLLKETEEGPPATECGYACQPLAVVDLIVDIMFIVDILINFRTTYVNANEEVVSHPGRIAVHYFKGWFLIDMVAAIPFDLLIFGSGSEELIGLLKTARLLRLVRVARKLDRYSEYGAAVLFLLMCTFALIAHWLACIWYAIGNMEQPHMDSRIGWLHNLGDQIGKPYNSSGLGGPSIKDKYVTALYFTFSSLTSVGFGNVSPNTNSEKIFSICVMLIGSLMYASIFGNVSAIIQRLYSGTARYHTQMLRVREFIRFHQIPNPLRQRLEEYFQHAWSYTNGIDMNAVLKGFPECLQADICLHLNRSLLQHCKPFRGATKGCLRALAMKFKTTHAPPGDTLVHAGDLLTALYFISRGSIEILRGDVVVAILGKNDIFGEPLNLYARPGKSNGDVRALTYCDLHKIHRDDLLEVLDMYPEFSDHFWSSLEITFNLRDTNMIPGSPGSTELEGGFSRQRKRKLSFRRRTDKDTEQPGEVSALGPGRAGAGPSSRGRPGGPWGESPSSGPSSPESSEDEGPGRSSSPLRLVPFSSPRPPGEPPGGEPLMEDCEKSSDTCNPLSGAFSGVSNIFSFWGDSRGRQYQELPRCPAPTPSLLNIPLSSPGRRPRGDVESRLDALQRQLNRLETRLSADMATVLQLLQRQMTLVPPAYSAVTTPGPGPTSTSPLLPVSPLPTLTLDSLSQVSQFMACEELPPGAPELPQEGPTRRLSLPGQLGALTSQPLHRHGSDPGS

As for `COc1cc(CC(=O)N2CCC(NC(=O)NCc3ccc(OC(F)(F)F)cc3)CC2)cc(OC)c1`, the inhibition at 10 µM against hERG stood at 12.5%. Besides, in the data set with Mus musculus [1], the inhibition in vivo at 10 mg/kg was 20.8%. The results for the Activity result in the data set with Rattus norvegicus and in the data set on Mus musculus [3] were “Active; Mild Hyperplasia Was Observed” and 42%, respectively. In addition, the inhibition in vivo at 20 mg/kg with Mus musculus [2] was determined as 38.1%.
